Test results reported in ChEMBL document CHEMBL3885881, “DrugMatrix”.

Species: Rattus norvegicus
Assay: DrugMatrix - Regimen: Daily Repeat
Type: toxicity, organism-based, Sprague-Dawley
Set-up: regimen Daily Repeat, gender Male, age 6-8 weeks
Settings: in vivo, po, route oral GAVAGE, vehicle 100 % WATER; for ABSOLUTE BASOPHIL / ABSOLUTE EOSINOPHIL / ABSOLUTE LYMPHOCYTE / ABSOLUTE MONOCYTE / ABSOLUTE SEGMENTED NEUTROPHIL / BASOPHIL / EOSINOPHIL / ERYTHROCYTE COUNT / HEMATOCRIT / HEMOGLOBIN / LEUKOCYTE COUNT / LYMPHOCYTE / MEAN CORPUSCULAR HEMOGLOBIN / MEAN CORPUSCULAR HEMOGLOBIN CONCENTRATION / MEAN CORPUSCULAR VOLUME / MONOCYTE / NEUTROPHIL / NUCLEATED RED BLOOD CELLS / PLATELET COUNT: tissue Blood; for ALANINE AMINOTRANSFERASE / ALBUMIN / ALKALINE PHOSPHATASE / ASPARTATE AMINOTRANSFERASE / BLOOD UREA NITROGEN / CARBON DIOXIDE / CHLORIDE / CHOLESTEROL / CREATINE PHOSPHOKINASE / CREATININE / GLUCOSE / LACTATE DEHYDROGENASE / LIPASE / PHOSPHORUS / POTASSIUM / SODIUM / TOTAL BILIRUBIN / TOTAL PROTEIN / URIC ACID: tissue Plasma
[1] = 30 mg/kg, 72 h, dose level Low, time 3 day
[2] = 30 mg/kg, 120 h, dose level Low, time 5 day
[3] = 3000 mg/kg, 72 h, dose level High, time 3 day
[4] = 3000 mg/kg, 120 h, dose level High, time 5 day

## O=C(O)CC(O)(CC(=O)O)C(=O)O [CITRIC ACID]
[1]
  ABSOLUTE BASOPHIL: 0 CELLS/uL
  ABSOLUTE EOSINOPHIL: 0 CELLS/uL
  ABSOLUTE LYMPHOCYTE: 12691.33 CELLS/uL
  ABSOLUTE MONOCYTE: 367.33 CELLS/uL
  ABSOLUTE SEGMENTED NEUTROPHIL: 908 CELLS/uL
  BASOPHIL: 0%
  EOSINOPHIL: 0%
  ERYTHROCYTE COUNT: 5.83 x10E6/uL
  HEMATOCRIT: 37%
  HEMOGLOBIN: 14.67 G/DL
  LEUKOCYTE COUNT: 13.97 x10E3/uL
  LYMPHOCYTE: 91%
  MEAN CORPUSCULAR HEMOGLOBIN: 25.17 pg
  MEAN CORPUSCULAR HEMOGLOBIN CONCENTRATION: 39.67 G/DL
  MEAN CORPUSCULAR VOLUME: 63.43 fL
  MONOCYTE: 2.67%
  NEUTROPHIL: 6.33%
  NUCLEATED RED BLOOD CELLS: 0 /100WBC
  PLATELET COUNT: 1121.33 x10E3/uL
  ALANINE AMINOTRANSFERASE: 54.67 u/L
  ALBUMIN: 4.2 G/DL
  ALKALINE PHOSPHATASE: 442.33 u/L
  ASPARTATE AMINOTRANSFERASE: 93.33 u/L
  BLOOD UREA NITROGEN: 13.33 mg/dL
  CARBON DIOXIDE: 23 mmol/L
  CHLORIDE: 102.33 MEQ/L
  CHOLESTEROL: 85.67 mg/dL
  CREATINE PHOSPHOKINASE: 514.33 u/L
  CREATININE: 0.18 mg/dL
  GLUCOSE: 184.33 mg/dL
  LACTATE DEHYDROGENASE: 173 u/L
  LIPASE: 9.67 u/L
  PHOSPHORUS: 12.77 mg/dL
  POTASSIUM: 6.46 MEQ/L
  SODIUM: 146.53 MEQ/L
  TOTAL BILIRUBIN: 0.2 mg/dL
  TOTAL PROTEIN: 5.97 G/DL
  URIC ACID: 2.5 mg/dL
[2]
  ABSOLUTE BASOPHIL: 0 CELLS/uL
  ABSOLUTE EOSINOPHIL: 0 CELLS/uL
  ABSOLUTE LYMPHOCYTE: 16594.33 CELLS/uL
  ABSOLUTE MONOCYTE: 186.67 CELLS/uL
  ABSOLUTE SEGMENTED NEUTROPHIL: 1885.67 CELLS/uL
  BASOPHIL: 0%
  EOSINOPHIL: 0%
  ERYTHROCYTE COUNT: 5.64 x10E6/uL
  HEMATOCRIT: 37.07%
  HEMOGLOBIN: 14.63 G/DL
  LEUKOCYTE COUNT: 18.67 x10E3/uL
  LYMPHOCYTE: 88.67%
  MEAN CORPUSCULAR HEMOGLOBIN: 25.97 pg
  MEAN CORPUSCULAR HEMOGLOBIN CONCENTRATION: 39.47 G/DL
  MEAN CORPUSCULAR VOLUME: 65.7 fL
  MONOCYTE: 1%
  NEUTROPHIL: 10.33%
  NUCLEATED RED BLOOD CELLS: 0 /100WBC
  PLATELET COUNT: 1295.33 x10E3/uL
  ALANINE AMINOTRANSFERASE: 48 u/L
  ALBUMIN: 4.2 G/DL
  ALKALINE PHOSPHATASE: 374.67 u/L
  ASPARTATE AMINOTRANSFERASE: 80.67 u/L
  BLOOD UREA NITROGEN: 18 mg/dL
  CARBON DIOXIDE: 23 mmol/L
  CHLORIDE: 103.67 MEQ/L
  CHOLESTEROL: 77 mg/dL
  CREATINE PHOSPHOKINASE: 316.33 u/L
  CREATININE: 0.18 mg/dL
  GLUCOSE: 154.33 mg/dL
  LACTATE DEHYDROGENASE: 396.33 u/L
  LIPASE: 10.33 u/L
  PHOSPHORUS: 13.53 mg/dL
  POTASSIUM: 6.74 MEQ/L
  SODIUM: 147.27 MEQ/L
  TOTAL BILIRUBIN: 0.2 mg/dL
  TOTAL PROTEIN: 6.03 G/DL
  URIC ACID: 1.4 mg/dL
[3]
  ABSOLUTE BASOPHIL: 0 CELLS/uL
  ABSOLUTE EOSINOPHIL: 0 CELLS/uL
  ABSOLUTE LYMPHOCYTE: 12922.33 CELLS/uL
  ABSOLUTE MONOCYTE: 727.33 CELLS/uL
  ABSOLUTE SEGMENTED NEUTROPHIL: 1850.33 CELLS/uL
  BASOPHIL: 0%
  EOSINOPHIL: 0%
  ERYTHROCYTE COUNT: 5.42 x10E6/uL
  HEMATOCRIT: 33.17%
  HEMOGLOBIN: 13.3 G/DL
  LEUKOCYTE COUNT: 15.5 x10E3/uL
  LYMPHOCYTE: 83.67%
  MEAN CORPUSCULAR HEMOGLOBIN: 24.53 pg
  MEAN CORPUSCULAR HEMOGLOBIN CONCENTRATION: 40.1 G/DL
  MEAN CORPUSCULAR VOLUME: 61.2 fL
  MONOCYTE: 4.67%
  NEUTROPHIL: 11.67%
  NUCLEATED RED BLOOD CELLS: 0 /100WBC
  PLATELET COUNT: 1290.67 x10E3/uL
  ALANINE AMINOTRANSFERASE: 49.67 u/L
  ALBUMIN: 4.17 G/DL
  ALKALINE PHOSPHATASE: 428.33 u/L
  ASPARTATE AMINOTRANSFERASE: 78.33 u/L
  BLOOD UREA NITROGEN: 15.67 mg/dL
  CARBON DIOXIDE: 26.67 mmol/L
  CHLORIDE: 103 MEQ/L
  CHOLESTEROL: 70.33 mg/dL
  CREATINE PHOSPHOKINASE: 223 u/L
  CREATININE: 0.2 mg/dL
  GLUCOSE: 155 mg/dL
  LACTATE DEHYDROGENASE: 102.33 u/L
  LIPASE: 9.67 u/L
  PHOSPHORUS: 12.67 mg/dL
  POTASSIUM: 6.48 MEQ/L
  SODIUM: 145.77 MEQ/L
  TOTAL BILIRUBIN: 0.2 mg/dL
  TOTAL PROTEIN: 5.53 G/DL
  URIC ACID: 1.37 mg/dL
[4]
  ABSOLUTE BASOPHIL: 0 CELLS/uL
  ABSOLUTE EOSINOPHIL: 62.33 CELLS/uL
  ABSOLUTE LYMPHOCYTE: 16836 CELLS/uL
  ABSOLUTE MONOCYTE: 0 CELLS/uL
  ABSOLUTE SEGMENTED NEUTROPHIL: 2301.67 CELLS/uL
  BASOPHIL: 0%
  EOSINOPHIL: 0.33%
  ERYTHROCYTE COUNT: 5.65 x10E6/uL
  HEMATOCRIT: 36.43%
  HEMOGLOBIN: 14.37 G/DL
  LEUKOCYTE COUNT: 19.2 x10E3/uL
  LYMPHOCYTE: 87.67%
  MEAN CORPUSCULAR HEMOGLOBIN: 25.5 pg
  MEAN CORPUSCULAR HEMOGLOBIN CONCENTRATION: 39.47 G/DL
  MEAN CORPUSCULAR VOLUME: 64.63 fL
  MONOCYTE: 0%
  NEUTROPHIL: 12%
  NUCLEATED RED BLOOD CELLS: 1 /100WBC
  PLATELET COUNT: 1284.33 x10E3/uL
  ALANINE AMINOTRANSFERASE: 50 u/L
  ALBUMIN: 4.2 G/DL
  ALKALINE PHOSPHATASE: 416.67 u/L
  ASPARTATE AMINOTRANSFERASE: 71.67 u/L
  BLOOD UREA NITROGEN: 16.67 mg/dL
  CARBON DIOXIDE: 23.67 mmol/L
  CHLORIDE: 102 MEQ/L
  CHOLESTEROL: 77 mg/dL
  CREATINE PHOSPHOKINASE: 254.67 u/L
  CREATININE: 0.2 mg/dL
  GLUCOSE: 151 mg/dL
  LACTATE DEHYDROGENASE: 91.33 u/L
  LIPASE: 10.33 u/L
  PHOSPHORUS: 13.03 mg/dL
  POTASSIUM: 6.54 MEQ/L
  SODIUM: 144.77 MEQ/L
  TOTAL BILIRUBIN: 0.23 mg/dL
  TOTAL PROTEIN: 5.93 G/DL
  URIC ACID: 1.57 mg/dL
